The text below walks through data of patent US20190201414A1, “INHIBITOR OF HEME DEGRADATION FOR USE TO IMPROVE ANTIBIOTIC TREATMENT OF MYCOBACTERIUM TUBERCULOSIS INFECTION” (The United States of America, as represented by the …, priority 2016, published 2019).

The structures appear in SMILES notation. Values after ≈ are worked out from the molar mass of the structure shown. “Also recorded” adds a separate entry of the source. Where two headings read alike, the source gives them in different places.

For data set [1], the system named is Mtb-infected bone marrow derived macrophages (BMDM). In words: bacterial load in Mtb-infected bone marrow derived macrophages. Format: cell-based. Particulars: for effect on SnPPIX-induced reduction in bacillary load: incubated in conjunction with SnPPIX; for number of bacteria: iron donor added alone; for reduction in the number of bacilli: iron chelating agent added to SnPPIX; for intracellular bacterial burden: iron chelating agent alone.

In data set [2] the test system is M. tuberculosis strain H37Rv. In words: micro-dilution broth MIC99 assay in GAST media. In kind it is cell-based. Particulars: for inhibition of bacterial growth: 28-day period; for MIC99: read-out: day 28 MIC99. (Broth dilution looks for growth in wells or tubes with falling amounts of substance.)
A further data set deals with heme oxygenase. Particulars: comparison SnPPIX vs ZnPPIX; cited from earlier work.
Data set [3] deals with GFP-expressing M. tuberculosis/pMSP12. In words: microbe, parasite or virus in culture. Format: cell-based. The settings on record: for MIC: read-out: day 21 MIC95.
Data set [4] deals with T1, recombinant human HO-1-G139A (hHO-1) (Homo sapiens, UniProt P09601, G139A).
T1 construct: made in house
T1 sequence (P09601 1-288 G139A): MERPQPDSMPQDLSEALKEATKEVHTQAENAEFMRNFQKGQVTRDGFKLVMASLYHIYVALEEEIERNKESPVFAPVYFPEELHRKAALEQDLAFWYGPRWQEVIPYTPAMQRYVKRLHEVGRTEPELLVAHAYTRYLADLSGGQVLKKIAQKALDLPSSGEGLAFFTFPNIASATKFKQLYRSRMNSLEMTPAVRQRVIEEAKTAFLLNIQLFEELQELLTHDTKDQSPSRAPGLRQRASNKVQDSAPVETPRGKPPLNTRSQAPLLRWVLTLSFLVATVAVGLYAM
In words: heme degradation by recombinant human HO-1-G139A, UV/vis spectroscopy. Particulars: 2 μM SnPPIX, 1 hour. Format: biochemical.

The conditions of data set [5]: newborns, clinical use; cited from earlier work.
For data set [6], the system named is M. tuberculosis strain H37Rv. In kind it is in vivo, mice.
The next data set concerns the target T2, M. tuberculosis MhuD (Mycobacterium tuberculosis, UniProt P9WKH3).
T2 construct: His6 (C); made in house; host or cells: Escherichia coli BL21-Gold (DE3)
In words: MhuD heme/SnPPIX degradation assay by UV/vis spectroscopy. In kind it is biochemical.

The conditions of data set [7]: comparison ZnPPIX vs SnPPIX; cited from earlier work.

T2 sequence (P9WKH3 whole entry): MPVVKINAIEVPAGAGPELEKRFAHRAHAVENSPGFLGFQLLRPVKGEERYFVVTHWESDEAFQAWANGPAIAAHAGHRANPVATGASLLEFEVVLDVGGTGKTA

As for `O=S(=O)([O-])[O-].[Fe+2]` [FeSO4], in data set [1], the “effect on SnPPIX-induced reduction in bacillary load” value is “completely inhibited the reduction in bacillary load” and the number of bacteria result is reported as “did not significantly enhance the number of bacteria”.

For orientation: MIC99 means an inhibitory concentration at the 99% level, which refers to growth in some studies and to a panel of isolates in others. For `C=Cc1c(C)c2cc3[nH]c(cc4nc(cc5nc(cc1[nH]2)C(C)=C5CCC(=O)[O-])C(CCC(=O)[O-])=C4C)c(C)c3C=C.[Cl-].[Cl-].[Sn+4]` [SnPPIX, tin (IV) protoporphyrin IX dichloride], the “inhibition of bacterial growth” value in [2] (125 μM, complete (iron-containing) GAST medium) is reported as “No inhibition of bacterial growth was observed”; in data set [2] (125 μM, iron-free medium) it was “toxicity was observed”; in data set [3] (pH 7), “no inhibition of bacterial growth was observed”. The “effect of hemin addition on toxicity in iron-free medium” value in data set [2] (125 μM, iron-free medium plus 10 μM hemin) is recorded as “reversed this effect”. The MIC99 in data set [2] (GAST + 10 μM Hemin) was >125 µM; in data set [2] (GAST medium), 125 µM; in data set [2] (GASTFe medium), >125 µM. In the data set with heme oxygenase, the “heme oxygenase inhibitory capacity” value is “higher heme oxygenase inhibitory capacity compared with ZnPPIX”. In addition, the MIC in data set [3] (pH 6) and in data set [3] was >125 µM throughout. Besides, the “heme-degrading activity of HO-1” value in [4] is recorded as “blocked”. The cellular bacterial load entry in data set [1] (added alone) is on record as “reduced cellular bacterial load”. Also, the side effects entry in data set [5] is “minimum side effects”. Besides, in [6] (C57BL/6, lungs vs mediastinal lymph nodes or spleens), the “effect on bacterial load by organ” value was “more prominent in the lungs”. The “enhancement of RHZ efficacy” value in [6] (SnPPIX initiated 6 weeks after initiation of RHZ therapy) is recorded as “failed to enhance RHZ efficacy”. Besides, in data set [6] (TCR-α−/− mice, treatment from 4 wpi, euthanized two weeks after initiation), the bacterial loads entry is given as “indistinguishable from those of untreated”. For the same molecule, in data set [6] (mouse, in vivo), the mycobacterial load result is listed as “highly significant reduction”. Besides, in [6] (mouse, in vivo), the “protection / mortality kinetics” value is “failed to protect”. Moreover, the pulmonary bacterial load entry in data set [6] (mouse, in vivo) is recorded as “not at 3 wpi; also recorded: no difference in bacterial loads”; in data set [6] (mouse, in vivo, ip, 5 mg/kg), “highly significant reduction”. The “reduction in pulmonary bacterial loads below untreated infected mice” value in data set [6] (mouse, in vivo) is on record as ~1 log. The “bacterial loads in lungs and mediastinal lymph nodes vs non-treated mice” value in data set [6] (mouse, in vivo, ip) is on record as “diminished bacterial loads”. The “effect on heme degradation by MhuD” value on M. tuberculosis MhuD (2 μM SnPPIX, 5 μM MhuD-heme, 1 hour) is recorded as “does not appear to have an effect”. The “SnPPIX degradation by MhuD” value on M. tuberculosis MhuD (monitored for 24 hours) is “no SnPPIX degradation even after 24 hours”.

For `NNC(=O)c1ccncc1` [Isoniazid, reference compound], the MIC99 in data set [2] (Mycobacterium tuberculosis, H37RV, 672 h, GAST + 10 μM Hemin) was determined as 0.1 µM; in data set [2] (Mycobacterium tuberculosis, H37RV, 672 h, GAST medium), 0.1 µM (≈ 0.0137 µg/mL); in [2] (Mycobacterium tuberculosis, H37RV, 672 h, GASTFe medium) it was 0.2 µM (≈ 0.0274 µg/mL).

For `CO[C@H]1/C=C/O[C@@]2(C)Oc3c(C)c(O)c4c(O)c(c(/C=N/N5CCN(C)CC5)c(O)c4c3C2=O)NC(=O)/C(C)=C\C=C\[C@H](C)[C@H](O)[C@@H](C)[C@@H](O)[C@@H](C)[C@H](OC(C)=O)[C@@H]1C` [Rifampicin, reference compound], the MIC in [3] (Mycobacterium tuberculosis, 504 h, pH 6) is 0.04 µM (≈ 0.0329 µg/mL); in data set [3] (Mycobacterium tuberculosis, 504 h), 0.04 µM (≈ 0.0329 µg/mL).

With `Cc1ncc(CO)c(C=NNC(=O)c2ccncc2)c1O` [PIH, pyridoxal isonicotinoyl hydrazone], in data set [1], the “reduction in the number of bacilli” value is on record as “further enhancement in the reduction” and the intracellular bacterial burden result was “significant reduction”.

For the molecule `c1ccc(-c2ccccn2)nc1` [DP, 2′2′dipyridyl], in data set [1], the “reduction in the number of bacilli” value was “further enhancement in the reduction” and the intracellular bacterial burden entry is “significant reduction”.

With `[Cl][Fe]([Cl])[Cl]` [FeCl3], in data set [1], the “effect on SnPPIX-induced reduction in bacillary load” value is “completely inhibited the reduction in bacillary load” and the number of bacteria entry is on record as “did not significantly enhance the number of bacteria”.

Take `C=CC1=C(C)c2cc3[n-]c(cc4[n-]c(cc5nc(cc1n2)C(C)=C5C=C)c(C)c4CCC(=O)O)c(CCC(=O)O)c3C.[Zn+2]` [ZnPPIX, zinc (II) protoporphyrin IX]: the solubility entry in data set [7] is “less soluble than SnPPIX”.
